# In patent publication US11873320B2 (REATA PHARMACEUTICALS HOLDINGS, LLC, priority 2013, dated 2024):
# Assays:
# [1] = system: LPS-induced pulmonary inflammation
# [2] = system: fractionated radiation dermatitis; experiment: fractionated radiation dermatitis model, Balb/c mice; format: in vivo, mouse; settings: 0.1 to 1% topical formulations
# Procedure: The mice were irradiated on days 0-2 and 5-7 with six 10-Gy doses […]. Clinical dermatitis scores for the mice were evaluated blindly every two days from day 4 until the end of the study. […] Study and treatment parameters can be found in Table 6.
# By analyzing the average clinical scores that were shown in FIG. 43, an area under the curve (AUC) analysis was performed, which yielded the severity of the dermatitis relative to how long the dermatitis persisted.
# MRP-1 = MRP-1 (Homo sapiens, UniProt P33527); experiment: in vitro efflux by MRP-1; settings: not told
# [3] = system: Nrf2 protein expression in SK-N-SH cells; experiment: in-cell western NQO1 assay, SK-N-SH cells; format: cell-based; settings: Homo sapiens, 72 h, 3 days incubation, read-out: EC50 for induction of Nrf2 protein expression in SK-N-SH cells
# Procedure: (§1) HMOX1 protein was not detected in untreated or RTA 408-treated SH-SY5Y cells. […] The same amount of 63170 (54.6 nM) was required.
# The EC50 was measured using an in-cell western NQO1 assay where the cells were incubated with the compound under evaluation for 3 days. After incubation with the compound of interest, the cells were reacted with mouse NQO1 antibody and then the next day the cells were reacted with IRDye-800CW-anti-mouse IgG antibody. The target signals were visualized and then analyzed.
# RAW264.7 cells = experiment: WST-1 cell viability, RAW264.7; format: cell-based; settings: Mus musculus
# Procedure: Inhibition of IFNγ-induced NO production by AIMs is Nrf2-dependent (Dinkova-Kostova, 2005). […] Nitrite (NO2^−) levels in the media were measured as a surrogate for nitric oxide using the Griess reagent assay. Cell viability was assessed using the WST-1 assay. […] 63170, 63171, 63179, and 63189 are compounds of the formulas: […]
# NQO1 protein = experiment: Nrf2 target protein levels in SH-SY5Y cells; format: cell-based, human; settings: dose-dependent
# Procedure: as §1
# ovalbumin-induced asthma = ovalbumin-induced asthma in mice; format: in vivo, mouse
# Excerpt: Mice were sensitized with an IP injection of ovalbumin and aluminum hydroxide on Day 0 and Day 14 and challenged intranasally with ovalbumin in saline on Days 14, 25, 26, and 27. […] An increase in the number of T cells and B cells was also observed in the vehicle-treated mice.
# [4] = system: radiation-induced oral mucositis; experiment: radiation-induced oral mucositis in hamsters
# CD rats = experiment: neurobehavioral evaluation in rats (FOB); format: in vivo, rat
# Procedure: One additional group of 10 animals/sex served as the control and received vehicle (sesame oil).
# Observations for morbidity, mortality, injury, and availability of food and water were conducted twice daily for all animals. Observations for clinical signs were conducted prior to dosing on Day 1 and following each functional observational battery (FOB) evaluation. FOB evaluations were conducted pre-dose (Day −1) and at approximately 4 and 24 hours post-dose. Body weights were measured and recorded pre-dose on Day 1.
# NADPH levels = experiment: WST-1 absorbance as marker of NADPH in HCT-116 cells; format: cell-based; settings: 24 hours
# NQO1 = NQO1 activity in mouse tissues, 25 mg/kg PO QD×3; format: in vivo
# ocular inflammation = ocular inflammation after paracentesis in rabbits; format: in vivo, rabbit; settings: 0.01% RTA 408 in the formulation
# Procedure: Each rabbit was given three instillations within 60 minutes before induction of paracentesis and two instillations within 30 minutes after induction of paracentesis. Each instillation was 50 μL and given in both eyes. Aqueous humor for 6 animals per time-point was collected 30 minutes and again 2 hours after induction of paracentesis. The amount of inflammation was determined by protein concentration in the aqueous humor.
# [5] = system: genotoxicity (micronucleated polychromatic erythrocytes); experiment: in vivo micronucleus study
# Nrf2 target genes = experiment: Nrf2 target gene expression in HFL1 lung fibroblasts (quantitative PCR); format: cell-based, human; settings: 18 hours
# MRP-1, sequence (P33527 whole entry): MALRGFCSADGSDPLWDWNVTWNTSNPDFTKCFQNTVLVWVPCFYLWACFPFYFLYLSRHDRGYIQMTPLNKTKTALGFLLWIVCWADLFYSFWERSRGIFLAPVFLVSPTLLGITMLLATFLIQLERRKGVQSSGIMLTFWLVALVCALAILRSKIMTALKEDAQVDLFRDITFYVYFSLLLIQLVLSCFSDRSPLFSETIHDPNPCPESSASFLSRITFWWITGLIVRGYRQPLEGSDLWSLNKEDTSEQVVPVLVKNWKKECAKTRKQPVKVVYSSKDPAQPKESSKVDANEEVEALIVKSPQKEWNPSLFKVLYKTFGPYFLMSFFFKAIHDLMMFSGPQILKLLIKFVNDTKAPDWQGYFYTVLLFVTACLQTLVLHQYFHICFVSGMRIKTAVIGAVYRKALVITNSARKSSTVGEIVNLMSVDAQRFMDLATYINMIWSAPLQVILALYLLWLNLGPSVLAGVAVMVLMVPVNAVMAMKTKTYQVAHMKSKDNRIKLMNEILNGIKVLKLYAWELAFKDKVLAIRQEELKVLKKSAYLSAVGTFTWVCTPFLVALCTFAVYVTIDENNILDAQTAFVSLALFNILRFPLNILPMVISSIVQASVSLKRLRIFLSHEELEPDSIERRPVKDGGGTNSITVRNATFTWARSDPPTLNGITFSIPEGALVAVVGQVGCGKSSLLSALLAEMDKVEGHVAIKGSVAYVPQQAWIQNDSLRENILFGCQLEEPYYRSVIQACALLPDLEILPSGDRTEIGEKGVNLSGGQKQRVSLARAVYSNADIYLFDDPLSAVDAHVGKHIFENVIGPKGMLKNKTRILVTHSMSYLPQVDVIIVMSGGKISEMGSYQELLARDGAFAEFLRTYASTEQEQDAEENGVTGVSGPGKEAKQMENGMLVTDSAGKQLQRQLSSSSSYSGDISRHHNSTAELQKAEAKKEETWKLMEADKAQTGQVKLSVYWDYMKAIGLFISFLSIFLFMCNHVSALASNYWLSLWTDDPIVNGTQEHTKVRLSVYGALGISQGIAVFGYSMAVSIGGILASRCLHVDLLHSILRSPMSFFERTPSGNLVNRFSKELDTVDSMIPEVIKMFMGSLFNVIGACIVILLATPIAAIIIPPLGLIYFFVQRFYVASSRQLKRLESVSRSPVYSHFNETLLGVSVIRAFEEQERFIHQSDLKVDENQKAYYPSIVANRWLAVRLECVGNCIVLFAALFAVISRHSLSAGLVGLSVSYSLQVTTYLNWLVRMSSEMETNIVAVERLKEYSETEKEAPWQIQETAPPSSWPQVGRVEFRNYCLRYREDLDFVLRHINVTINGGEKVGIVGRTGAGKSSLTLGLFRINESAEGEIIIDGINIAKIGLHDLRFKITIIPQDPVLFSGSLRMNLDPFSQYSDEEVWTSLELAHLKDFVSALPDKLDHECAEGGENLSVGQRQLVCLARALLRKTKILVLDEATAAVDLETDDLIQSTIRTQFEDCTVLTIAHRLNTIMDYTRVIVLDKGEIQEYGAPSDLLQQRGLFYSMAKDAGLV
smiles,measurement,setting,value
"CC1(C)CC[C@]2(NC(=O)C(C)(F)F)CC[C@]3(C)[C@H](C(=O)C=C4[C@@]5(C)C=C(C#N)C(=O)C(C)(C)[C@@H]5CC[C@]43C)[C@@H]2C1 [RTA 408, N-((4aS,6aR,6bS,8aR,12aS,14aR,14bS)-11-cyano-2,2,6a,6b,9,9,12a-heptamethyl-10,14-dioxo-1,2,3,4,4a,5,6,6a,6b,7,8,8a,9,10,12a,14,14a,14b-octadecahydropicen-4a-yl)-2,2-difluoropropanamide]",TNFα in BALF,[1]; 10 mg/kg,Significant reductions
same,"IL-12p40, TNFα, and RANTES in BALF",[1]; 30 mg/kg,significant reductions
same,lung NQO1 enzyme activity and total GSH,[1]; 10 and 30 mg/kg,significant induction of NQO1 enzyme activity and increases in total GSH
same,average clinical dermatitis scores over time,[2],statistically significant improvement in the scores
same,MRP-1 substrate status,MRP-1,not a substrate of MRP-1
same,EC50,[3],56.4 nM
same,IC50,RAW264.7 cells,125 nM
same,NQO1 protein levels,NQO1 protein,increased NQO1 protein levels
same,B cells within the airways,ovalbumin-induced asthma; 30 mg/kg,significantly reduced the number and percentage of B cells
same,macrophages detected in the airways,ovalbumin-induced asthma; 3 and 30 mg/kg,significantly reduced the number of macrophages
same,hamsters euthanized on Day 2 due to weight loss in excess of 20%,[4]; 100 mg/kg,two out of eight
same,duration of ulcerative mucositis,[4]; 30 and 100 mg/kg,significant reduction
same,percentage of animals with mucositis scores ≥3,"[4]; hamster, in vivo",dose-dependent decrease
same,body weight gain approximately 24 hours after dosing,CD rats; 30 mg/kg,Slight decreases in body weight gain
same,basic neurobehavioral endpoints,"CD rats; doses up to and including 30 mg/kg, single oral dose",did not produce any adverse effects
same,WST-1 absorbance (NADPH marker),NADPH levels,increased WST-1 absorbance in a dose-dependent manner
same,activation of NQO1 in multiple tissues,NQO1,Meaningful activation of NQO1
same,aqueous humor protein concentration,ocular inflammation,reduction in aqueous humor protein similar to that of the highest concentration of any of the other reference compounds
same,Change from Control (%),"[5]; 125 mg/kg, 24-h timepoint",−8%
same,Number of MPCE/1000 PCE (Mean +/− SD),"[5]; 125 mg/kg, 24-h timepoint",0.3 ± 0.27
same,Number of MPCE/PCE Scored,"[5]; 125 mg/kg, 24-h timepoint",3/10000
same,PCE/Total Erythrocytes (Mean +/− SD),"[5]; 125 mg/kg, 24-h timepoint",0.543 ± 0.03
same,Change from Control (%),"[5]; 125 mg/kg, 48-h timepoint",−14%
same,Number of MPCE/1000 PCE (Mean +/− SD),"[5]; 125 mg/kg, 48-h timepoint",0.2 ± 0.27
same,Number of MPCE/PCE Scored,"[5]; 125 mg/kg, 48-h timepoint",2/10000
same,PCE/Total Erythrocytes (Mean +/− SD),"[5]; 125 mg/kg, 48-h timepoint",0.453 ± 0.03
same,Change from Control (%),"[5]; 250 mg/kg, 24-h timepoint",−12%
same,Number of MPCE/1000 PCE (Mean +/− SD),"[5]; 250 mg/kg, 24-h timepoint",0.3 ± 0.27
same,Number of MPCE/PCE Scored,"[5]; 250 mg/kg, 24-h timepoint",3/10000
same,PCE/Total Erythrocytes (Mean +/− SD),"[5]; 250 mg/kg, 24-h timepoint",0.520 ± 0.06
same,Change from Control (%),"[5]; 250 mg/kg, 48-h timepoint",−26%
same,Number of MPCE/1000 PCE (Mean +/− SD),"[5]; 250 mg/kg, 48-h timepoint",0.2 ± 0.27
same,Number of MPCE/PCE Scored,"[5]; 250 mg/kg, 48-h timepoint",2/10000
same,PCE/Total Erythrocytes (Mean +/− SD),"[5]; 250 mg/kg, 48-h timepoint",0.391 ± 0.02
same,Change from Control (%),"[5]; 500 mg/kg, 24-h timepoint",−28%
same,Number of MPCE/1000 PCE (Mean +/− SD),"[5]; 500 mg/kg, 24-h timepoint",0.0 ± 0.00
same,Number of MPCE/PCE Scored,"[5]; 500 mg/kg, 24-h timepoint",0/10000
same,PCE/Total Erythrocytes (Mean +/− SD),"[5]; 500 mg/kg, 24-h timepoint",0.426 ± 0.07
same,Change from Control (%),"[5]; 500 mg/kg, 48-h timepoint",−36%
same,Number of MPCE/1000 PCE (Mean +/− SD),"[5]; 500 mg/kg, 48-h timepoint",0.3 ± 0.45
same,Number of MPCE/PCE Scored,"[5]; 500 mg/kg, 48-h timepoint",3/10000
same,PCE/Total Erythrocytes (Mean +/− SD),"[5]; 500 mg/kg, 48-h timepoint",0.339 ± 0.05
same,Change from Control (%),"[5]; 1000 mg/kg, 24-h timepoint",−15%
same,Number of MPCE/1000 PCE (Mean +/− SD),"[5]; 1000 mg/kg, 24-h timepoint",0.2 ± 0.27
same,Number of MPCE/PCE Scored,"[5]; 1000 mg/kg, 24-h timepoint",2/10000
same,PCE/Total Erythrocytes (Mean +/− SD),"[5]; 1000 mg/kg, 24-h timepoint",0.498 ± 0.05
same,Change from Control (%),"[5]; 1000 mg/kg, 48-h timepoint",−35%
same,Number of MPCE/1000 PCE (Mean +/− SD),"[5]; 1000 mg/kg, 48-h timepoint",0.1 ± 0.22
same,Number of MPCE/PCE Scored,"[5]; 1000 mg/kg, 48-h timepoint",1/10000
same,PCE/Total Erythrocytes (Mean +/− SD),"[5]; 1000 mg/kg, 48-h timepoint",0.344 ± 0.04
same,Change from Control (%),"[5]; 1500 mg/kg, 24-h timepoint",−15%
same,Number of MPCE/1000 PCE (Mean +/− SD),"[5]; 1500 mg/kg, 24-h timepoint",0.4 ± 0.22
same,Number of MPCE/PCE Scored,"[5]; 1500 mg/kg, 24-h timepoint",4/10000
same,PCE/Total Erythrocytes (Mean +/− SD),"[5]; 1500 mg/kg, 24-h timepoint",0.499 ± 0.06
same,Change from Control (%),"[5]; 1500 mg/kg, 48-h timepoint",−39%
same,Number of MPCE/1000 PCE (Mean +/− SD),"[5]; 1500 mg/kg, 48-h timepoint",0.4 ± 0.42
same,Number of MPCE/PCE Scored,"[5]; 1500 mg/kg, 48-h timepoint",4/10000
same,PCE/Total Erythrocytes (Mean +/− SD),"[5]; 1500 mg/kg, 48-h timepoint",0.376 ± 0.05
same,Change from Control (%),"[5]; 2000 mg/kg, 24-h timepoint",−10%
same,Number of MPCE/1000 PCE (Mean +/− SD),"[5]; 2000 mg/kg, 24-h timepoint",0.2 ± 0.27
same,Number of MPCE/PCE Scored,"[5]; 2000 mg/kg, 24-h timepoint",2/10000
same,PCE/Total Erythrocytes (Mean +/− SD),"[5]; 2000 mg/kg, 24-h timepoint",0.531 ± 0.05
same,Change from Control (%),"[5]; 2000 mg/kg, 48-h timepoint",−32%
same,Number of MPCE/1000 PCE (Mean +/− SD),"[5]; 2000 mg/kg, 48-h timepoint",0.1 ± 0.22
same,Number of MPCE/PCE Scored,"[5]; 2000 mg/kg, 48-h timepoint",1/10000
same,PCE/Total Erythrocytes (Mean +/− SD),"[5]; 2000 mg/kg, 48-h timepoint",0.360 ± 0.03
same,genotoxicity in the in vivo micronucleus study,[5]; 125-2000 mg/kg,63415 is Negative for Genotoxicity
same,"concentration at which induction of NQO1, HMOX1, GCLM, TXNRD1 is evident",Nrf2 target genes,≤ 15.6 nM
